# Assay results taken from patent US20120128614A1, “SOLVENT, SOLUTION, CLEANING COMPOSITION AND METHODS” (SEGETIS, INC., priority 2009, published 2012).
# Key:
# [1] = Miscibility of alkyl ketal esters with water; type: physicochemical; settings: for miscibility with water: miscibility assessed at 25° C. unless stated otherwise
# Source text: The term “miscible” and its variations (“miscibility”, etc.) are used herein as a synonym for “soluble”, as that term is defined above. A material may be fully or partially miscible in another. As used herein, a material said to be “miscible” in another, without further qualification, is miscible with that other material in all proportions, i.e., mixtures that contain only the two components form clear homogenous solutions in all weight ratios from 99.9:0.1 to 0.1:99.9. A material is said to be “highly miscible” in another material if it is soluble in the other material to the extent of at least 20 parts in 80 parts of the other material, and preferably is soluble in that other material to the extent of at least 50 parts in 50 parts of the other material. A “highly miscible” material may be soluble in the other material to the extent of 99.9 parts to 0.1 part of that other material and all lower proportions. A material is said to be “sparingly miscible” in another (or has “low miscibility” in another material) if is immiscible (as defined below) therein or otherwise not soluble in that other material to the extent of 20 parts in 80 parts of the other material. A sparingly miscible material may be soluble in that other material to the extent of no more than 10 parts in 90 parts of that other material, and may be soluble in that other material to the extent of no more than 5 parts in 95 parts of the other material. A material is said to be “immiscible” in another if it is not soluble by itself in that material to the extent of at least 1 part per 99 parts of the other material. Unless stated otherwise, miscibility is assessed at 25° C.
# [2] = Bleach and peroxide stability evaluations with Et-LGK (GC/FID); type: physicochemical; settings: after storing for 96 hours
# Method: Examples 2-3 and a control (non-bleach) formulation are prepared by combining the ingredients indicated in Table 1 in a 20 ml borosilicate glass scintillation vial, followed by shaking vigorously to form a clear, colorless solution. All formulations are clear, colorless homogenous solutions after standing for three days at room temperature.
# After storing for 96 hours, GC/FID analysis is performed to assess the stability of Examples 2 and 3 and Comparative Sample A. Three analyses are performed with each test sample. […] For Example 1, the Et-LGK concentration is about 9.4%, indicating a slight degradation of the material in the presence of the chlorine bleach.
# [3] = Castor oil solubilization into water by cosolvent; settings: about 25° C.
# Method: Mixtures of water and castor oil ChemistryStore.com; Cayce, S.C.) are prepared at 10/90, 25/75, 50/50, 75/25 and 90/10 volume ratios. […] To assess the ability of Et-LGK to solubilize castor oil into water, Et-LGK is added to each of these mixtures with vigorous stirring in a 20 mL scintillation vial at about 25° C. until a clear solution is obtained.
# [4] = Soya methyl esters solubilization into water by cosolvent; settings: about 25° C.
# Method: Mixtures of water and soya methyl esters (Stepan Chemical, Northfield, Ill.) are prepared at 10/90, 25/75, 50/50, 75/25 and 90/10 volume ratios.
# [5] = Isobutyl isobutyrate (IBIB) solubilization into water by cosolvent; settings: about 25° C.
# Method: To assess the ability of Et-LGK to solubilize IBIB into water, Et-LGK is added to each of these mixtures with vigorous stirring in a 20 mL scintillation vial at about 25° C. until a clear solution is obtained.
# [6] = 2,2,4-Trimethyl-1,3-pentanediol (2-methylpropanoate) (Texanol) solubilization into water by cosolvent; settings: about 25° C.
# Method: To assess the ability of Et-LGK to solubilize Texanol into water, Et-LGK is added to each of these mixtures with vigorous stirring in a 20 mL scintillation vial at about 25° C. until a clear solution is obtained.
# The concentrations of these comparative solvents (in volume %) needed in each case to form a clear solution is reported in Table 6 as Comparative Samples G, H and I, respectively.
# [7] = Miscibility of alkyl ketal esters with organic compounds; type: physicochemical; settings: methanol, ethanol, tetrahydrofuran, acetone, ethyl acetate, methylene chloride, toluene, cyclohexane, acetic acid, poly(propylene glycol), mineral, castor, canola, corn, sunflower oil
# Source text: The term “miscible” and its variations (“miscibility”, etc.) are used herein as a synonym for “soluble”, as that term is defined above. A material may be fully or partially miscible in another. As used herein, a material said to be “miscible” in another, without further qualification, is miscible with that other material in all proportions, i.e., mixtures that contain only the two components form clear homogenous solutions in all weight ratios from 99.9:0.1 to 0.1:99.9. A material is said to be “highly miscible” in another material if it is soluble in the other material to the extent of at least 20 parts in 80 parts of the other material, and preferably is soluble in that other material to the extent of at least 50 parts in 50 parts of the other material. A “highly miscible” material may be soluble in the other material to the extent of 99.9 parts to 0.1 part of that other material and all lower proportions. A material is said to be “sparingly miscible” in another (or has “low miscibility” in another material) if is immiscible (as defined below) therein or otherwise not soluble in that other material to the extent of 20 parts in 80 parts of the other material. […] Unless stated otherwise, miscibility is assessed at 25° C.
# [8] = Bleach stability evaluation with Et-LPK (GC-FID purity); type: physicochemical; settings: 8 ml Et-LPK stirred overnight with 2 ml 6% sodium hypochlorite in water; organic phase analysed
# Method: The purity of an Et-LPK sample is measured by GC-FID (Model No. 7890A Gas Chromatograph w/ Flame Ionization Detector; Agilent Technologies, Santa Clara, Calif.). In a 20 ml vial (borosilicate scintillation; VWR International, West Chester, Pa.), 2 ml of a 6% sodium hypochlorite (bleach; Clorox Co., Oakland, Calif.) in water is mixed with 8 ml of Et-LPK to form a mixture. The mixture is shaken vigorously to produce a nearly clear solution. The mixture is further stirred overnight on a magnetic stir plate with a magnetic stir bar. Upon standing, the mixture separates into two phases—an upper organic phase and a bottom aqueous phase. A sample of the organic phase is analyzed by GC-FID to determine the purity of the Et-LPK after mixing.
# [9] = Et-LPK solubilization in Et-LGK/water mixtures (visual miscibility); type: physicochemical
# Method: Several three-component mixtures of Et-LGK, water and Et-LPK are prepared by mixing the materials the above materials at room temperature in a 20 ml scintillation vial with shaking. The mixtures prepared are analyzed visually for miscibility. Clear mixture are considered to be “miscible”, and mixtures, which are cloudy or form two or more distinct phases are considered to be “immiscible” on this test.
smiles,measurement,setting,value
CCCCOC(=O)CCC1(C)OCC(CO)O1 (centres unmarked) [n-butyl-LGK],miscible with water to the extent of,[1],about 1 part per 99 parts water
CCOC(=O)CC1(C)OCC(CO)O1 (centres unmarked) [Et-AcAcGK],miscibility with water,[1],miscible with water in all proportions
CCOC(=O)CCC1(C)OCC(CO)O1 (centres unmarked) [Et-LGK],miscibility with water,[1],miscible in water in all proportions
same,Et-LGK concentration (GC/FID),[2]; control (non-bleach) formulation,about 10%
same,Et-LGK concentration (GC/FID),[2]; formulation with 6% sodium hypochlorite solution (Table 1 'Example 1'),about 9.4%
same,Et-LGK concentration (GC/FID),[2]; formulation with hydrogen peroxide (Table 1 'Example 2'),the same as the control
"COC(C)COC(C)CO (centres unmarked) [DPGMME, dipropylene glycol monomethyl ether]",Required amount of cosolvent to obtain clear solution,[3]; 10/90 Water/castor oil ratio by volume,55.9 vol.-%
same,Required amount of cosolvent to obtain clear solution,[3]; 25/75 Water/castor oil ratio by volume,65.4 vol.-%
same,Required amount of cosolvent to obtain clear solution,[3]; 50/50 Water/castor oil ratio by volume,73.5 vol.-%
same,Required amount of cosolvent to obtain clear solution,[3]; 75/25 Water/castor oil ratio by volume,78.9 vol.-%
same,Required amount of cosolvent to obtain clear solution,[3]; 90/10 Water/castor oil ratio by volume,80.6 vol.-%
same,Required amount of cosolvent to obtain clear solution,[4]; 10/90 Water/soya methyl ester ratio by volume,48.3 vol.-%
same,Required amount of cosolvent to obtain clear solution,[4]; 25/75 Water/soya methyl ester ratio by volume,62.6 vol.-%
same,Required amount of cosolvent to obtain clear solution,[4]; 50/50 Water/soya methyl ester ratio by volume,73.6 vol.-%
same,Required amount of cosolvent to obtain clear solution,[4]; 75/25 Water/soya methyl ester ratio by volume,78.3 vol.-%
same,Required amount of cosolvent to obtain clear solution,[4]; 90/10 Water/soya methyl ester ratio by volume,78.3 vol.-%
same,Required amount of cosolvent to obtain clear solution,[5]; 10/90 Water/IBIB ratio by volume,54.5 vol. %
same,Required amount of cosolvent to obtain clear solution,[5]; 25/75 Water/IBIB ratio by volume,53.3 vol. %
same,Required amount of cosolvent to obtain clear solution,[5]; 50/50 Water/IBIB ratio by volume,58.9 vol. %
same,Required amount of cosolvent to obtain clear solution,[5]; 75/25 Water/IBIB ratio by volume,60.0 vol. %
same,Required amount of cosolvent to obtain clear solution,[5]; 90/10 Water/IBIB ratio by volume,62.5 vol. %
same,Required amount of cosolvent to obtain clear solution,[6]; 10/90 Water/Texanol ratio by volume,44.4 vol.-%
same,Required amount of cosolvent to obtain clear solution,[6]; 25/75 Water/Texanol ratio by volume,50.9 vol.-%
same,Required amount of cosolvent to obtain clear solution,[6]; 50/50 Water/Texanol ratio by volume,55.2 vol.-%
same,Required amount of cosolvent to obtain clear solution,[6]; 75/25 Water/Texanol ratio by volume,54.1 vol.-%
same,Required amount of cosolvent to obtain clear solution,[6]; 90/10 Water/Texanol ratio by volume,51.6 vol.-%
CCCOC(=O)CCC1(C)OCC(CO)O1 (centres unmarked) [n-propyl-LGK],miscible with water to the extent of,[1],about 1 part per 99 parts water
CCOC(=O)CCC1(C)OCC(C)O1 (centres unmarked) [Et-LPK],miscible in water to the extent of,[1],about 2.5 parts in 97.5 parts of water
same,dissolves or is miscible with organic compounds to the extent of,[7],at least 20 parts of the organic compound in 80 parts of ethyl-LPK
same,change in purity of Et-LPK (GC-FID) versus initial purity,[8],little to no change in the purity
same,Et-LPK concentration obtained in a miscible mixture with water and Et-LGK,[9]; Mixture 18,~55 wt. %
same,miscibility of Et-LPK in water,"[9]; at the 10.9% level, no Et-LGK",immiscible
COC(=O)CCC1(C)OCC(CO)O1 (centres unmarked) [Me-LGK],miscibility with water,[1],miscible with water in all proportions
CCOC(=O)CCC1(C)OCCO1 [Et-LEK],miscible in water to the extent of,[1],about 5 parts per 95 parts of water
COC(=O)CC1(C)OCC(CO)O1 (centres unmarked) [Me-AcAcGK],miscibility with water,[1],miscible with water in all proportions
